Test results: ChEMBL document CHEMBL5291721, “A preclinical secondary pharmacology resource illuminates target-adverse drug reaction associations of marketed drugs” (Nat Commun, 2023)

What was measured:
D(1A) dopamine receptor = D(1A) dopamine receptor (Homo sapiens, UniProt P21728)
[1] = target: 5-hydroxytryptamine receptor 2B (Homo sapiens, UniProt P41595)
[2] = target: Rod cGMP-specific 3',5'-cyclic phosphodiesterase subunit alpha (Homo sapiens, UniProt P16499); type: functional
D(1B) dopamine receptor = D(1B) dopamine receptor (Homo sapiens, UniProt P21918)
Androgen receptor = target: T1, Androgen receptor (Rattus norvegicus, UniProt P15207); type: functional
T1 sequence (P15207 whole entry): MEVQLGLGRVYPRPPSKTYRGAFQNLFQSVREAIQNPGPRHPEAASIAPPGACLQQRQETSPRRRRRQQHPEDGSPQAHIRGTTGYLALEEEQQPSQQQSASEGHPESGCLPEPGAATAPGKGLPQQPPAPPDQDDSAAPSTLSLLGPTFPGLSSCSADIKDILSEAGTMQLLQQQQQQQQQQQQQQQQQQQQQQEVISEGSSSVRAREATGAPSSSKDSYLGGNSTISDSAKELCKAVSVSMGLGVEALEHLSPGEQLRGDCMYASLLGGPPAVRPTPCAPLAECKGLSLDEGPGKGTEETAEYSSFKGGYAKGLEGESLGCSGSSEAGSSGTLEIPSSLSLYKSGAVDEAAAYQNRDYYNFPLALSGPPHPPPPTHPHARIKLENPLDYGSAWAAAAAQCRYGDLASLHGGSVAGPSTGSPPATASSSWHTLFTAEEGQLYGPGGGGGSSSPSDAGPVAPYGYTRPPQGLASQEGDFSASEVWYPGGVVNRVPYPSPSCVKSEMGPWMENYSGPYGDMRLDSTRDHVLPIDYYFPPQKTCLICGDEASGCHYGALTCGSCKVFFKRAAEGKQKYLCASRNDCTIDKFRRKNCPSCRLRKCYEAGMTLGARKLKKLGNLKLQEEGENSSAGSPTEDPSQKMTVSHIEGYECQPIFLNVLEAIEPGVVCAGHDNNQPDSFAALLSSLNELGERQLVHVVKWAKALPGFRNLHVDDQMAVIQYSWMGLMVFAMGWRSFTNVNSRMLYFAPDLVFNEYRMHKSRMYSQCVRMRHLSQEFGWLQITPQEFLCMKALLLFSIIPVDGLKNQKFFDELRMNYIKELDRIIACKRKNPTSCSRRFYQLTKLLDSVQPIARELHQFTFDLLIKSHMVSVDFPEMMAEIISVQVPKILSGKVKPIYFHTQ

[3] = target: T2, Muscarinic acetylcholine receptor M1 (Homo sapiens, UniProt P11229); type: functional, cell-based
T2 sequence (P11229 whole entry): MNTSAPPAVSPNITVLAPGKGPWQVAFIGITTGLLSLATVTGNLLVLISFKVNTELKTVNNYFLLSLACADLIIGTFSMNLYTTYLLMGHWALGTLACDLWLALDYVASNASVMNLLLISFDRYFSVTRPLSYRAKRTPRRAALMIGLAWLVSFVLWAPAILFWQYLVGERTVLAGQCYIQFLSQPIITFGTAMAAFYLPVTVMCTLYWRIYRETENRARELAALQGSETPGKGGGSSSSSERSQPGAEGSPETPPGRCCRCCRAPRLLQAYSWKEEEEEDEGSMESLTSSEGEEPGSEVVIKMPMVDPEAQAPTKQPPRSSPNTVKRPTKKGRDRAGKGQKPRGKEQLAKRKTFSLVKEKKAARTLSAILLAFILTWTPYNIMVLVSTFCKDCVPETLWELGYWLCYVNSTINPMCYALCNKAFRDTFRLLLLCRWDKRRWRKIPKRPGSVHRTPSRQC

[4] = target: T2, Muscarinic acetylcholine receptor M1; type: functional, cell-based; remark: listed apart in the source
[5] = target: T3, Prostaglandin G/H synthase 1 (Rattus norvegicus, UniProt Q63921); type: functional
T3 sequence (Q63921 whole entry): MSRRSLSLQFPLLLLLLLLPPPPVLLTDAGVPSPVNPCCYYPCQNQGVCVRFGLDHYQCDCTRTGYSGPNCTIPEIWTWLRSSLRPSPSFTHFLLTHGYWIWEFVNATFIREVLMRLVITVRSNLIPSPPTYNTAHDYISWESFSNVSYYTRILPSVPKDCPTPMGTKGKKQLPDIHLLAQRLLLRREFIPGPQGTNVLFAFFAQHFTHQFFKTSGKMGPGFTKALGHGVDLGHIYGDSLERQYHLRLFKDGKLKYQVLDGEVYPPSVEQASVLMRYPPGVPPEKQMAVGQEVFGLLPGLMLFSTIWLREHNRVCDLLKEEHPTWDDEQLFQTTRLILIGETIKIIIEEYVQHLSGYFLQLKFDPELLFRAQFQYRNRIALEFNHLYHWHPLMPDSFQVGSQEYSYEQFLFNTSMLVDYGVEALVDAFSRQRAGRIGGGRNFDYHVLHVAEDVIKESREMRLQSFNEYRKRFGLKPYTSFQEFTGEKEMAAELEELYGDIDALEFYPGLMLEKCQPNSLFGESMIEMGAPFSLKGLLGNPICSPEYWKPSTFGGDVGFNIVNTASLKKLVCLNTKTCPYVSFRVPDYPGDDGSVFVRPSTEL
Note: assay procedure not described here.

Chain of D(1B) dopamine receptor (P21918 whole entry): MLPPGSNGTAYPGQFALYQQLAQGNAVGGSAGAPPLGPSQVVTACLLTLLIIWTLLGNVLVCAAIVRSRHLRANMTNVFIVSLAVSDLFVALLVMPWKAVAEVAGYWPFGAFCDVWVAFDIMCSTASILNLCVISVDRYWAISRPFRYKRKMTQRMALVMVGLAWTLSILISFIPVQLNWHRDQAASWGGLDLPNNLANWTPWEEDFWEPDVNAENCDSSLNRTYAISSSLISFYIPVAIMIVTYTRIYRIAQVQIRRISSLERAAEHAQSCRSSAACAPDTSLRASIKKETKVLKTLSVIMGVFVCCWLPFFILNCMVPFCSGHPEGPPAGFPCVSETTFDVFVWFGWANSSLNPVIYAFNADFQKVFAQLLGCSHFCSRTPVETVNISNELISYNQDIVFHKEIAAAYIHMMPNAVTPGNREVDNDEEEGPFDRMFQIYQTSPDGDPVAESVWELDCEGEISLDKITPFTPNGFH
Chain of D(1A) dopamine receptor (P21728 whole entry): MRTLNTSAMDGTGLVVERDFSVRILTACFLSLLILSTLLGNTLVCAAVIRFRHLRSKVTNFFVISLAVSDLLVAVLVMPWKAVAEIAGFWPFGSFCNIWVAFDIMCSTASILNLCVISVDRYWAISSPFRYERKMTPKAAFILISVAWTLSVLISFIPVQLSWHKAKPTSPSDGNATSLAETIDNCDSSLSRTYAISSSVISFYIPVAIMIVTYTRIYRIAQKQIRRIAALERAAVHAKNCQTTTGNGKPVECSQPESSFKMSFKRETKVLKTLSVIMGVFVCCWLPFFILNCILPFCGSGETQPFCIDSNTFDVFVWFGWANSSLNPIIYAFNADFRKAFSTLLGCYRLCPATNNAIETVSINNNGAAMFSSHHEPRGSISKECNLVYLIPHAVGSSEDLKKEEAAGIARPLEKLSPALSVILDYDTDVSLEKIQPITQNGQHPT
Chain of Rod cGMP-specific 3',5'-cyclic phosphodiesterase subunit alpha (P16499 whole entry): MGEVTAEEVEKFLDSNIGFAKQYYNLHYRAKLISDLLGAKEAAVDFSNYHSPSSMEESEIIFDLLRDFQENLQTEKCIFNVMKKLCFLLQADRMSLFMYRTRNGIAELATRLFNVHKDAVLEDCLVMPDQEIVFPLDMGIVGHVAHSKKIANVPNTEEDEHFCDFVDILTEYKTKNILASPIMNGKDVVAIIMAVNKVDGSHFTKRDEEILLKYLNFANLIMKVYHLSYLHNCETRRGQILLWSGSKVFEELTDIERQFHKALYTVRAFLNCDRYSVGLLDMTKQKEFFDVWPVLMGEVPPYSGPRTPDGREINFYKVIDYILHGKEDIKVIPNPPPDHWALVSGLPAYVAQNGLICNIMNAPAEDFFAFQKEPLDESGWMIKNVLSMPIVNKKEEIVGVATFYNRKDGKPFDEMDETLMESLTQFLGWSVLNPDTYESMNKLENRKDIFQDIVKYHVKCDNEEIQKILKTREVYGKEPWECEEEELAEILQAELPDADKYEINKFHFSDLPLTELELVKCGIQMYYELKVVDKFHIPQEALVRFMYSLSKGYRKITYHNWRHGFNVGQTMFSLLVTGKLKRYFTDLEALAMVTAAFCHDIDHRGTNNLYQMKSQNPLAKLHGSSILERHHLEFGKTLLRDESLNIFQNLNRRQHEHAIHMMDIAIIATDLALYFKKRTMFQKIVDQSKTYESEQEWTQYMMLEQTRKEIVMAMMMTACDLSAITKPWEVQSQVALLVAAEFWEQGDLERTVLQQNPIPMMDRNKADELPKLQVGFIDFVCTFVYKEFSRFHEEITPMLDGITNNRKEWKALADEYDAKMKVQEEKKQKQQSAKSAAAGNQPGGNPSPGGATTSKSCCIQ
Chain of 5-hydroxytryptamine receptor 2B (P41595 whole entry): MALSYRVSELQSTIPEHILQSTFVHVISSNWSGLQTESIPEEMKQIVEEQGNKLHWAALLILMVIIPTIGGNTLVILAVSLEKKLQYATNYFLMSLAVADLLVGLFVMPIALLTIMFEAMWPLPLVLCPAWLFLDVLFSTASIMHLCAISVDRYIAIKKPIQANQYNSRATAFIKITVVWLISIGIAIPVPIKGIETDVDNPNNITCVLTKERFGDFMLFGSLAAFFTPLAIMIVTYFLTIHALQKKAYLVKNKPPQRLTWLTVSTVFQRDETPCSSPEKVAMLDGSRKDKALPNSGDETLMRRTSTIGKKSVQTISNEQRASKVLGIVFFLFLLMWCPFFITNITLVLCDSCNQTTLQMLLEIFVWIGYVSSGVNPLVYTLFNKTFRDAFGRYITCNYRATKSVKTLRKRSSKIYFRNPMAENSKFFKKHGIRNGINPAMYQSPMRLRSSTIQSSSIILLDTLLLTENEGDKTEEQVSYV

## CC(=O)c1ccc2c(c1)N(CCCN(C)C)c1ccccc1S2 [ACEPROMAZINE]
D(1A) dopamine receptor
  AC50: 0.066 µM

## C=CCN1C[C@H](C(=O)N(CCCN(C)C)C(=O)NCC)C[C@@H]2c3cccc4[nH]cc(c34)C[C@H]21 [CABERGOLINE]
[1]
  AC50: 0.0148 µM

## CCOc1ccccc1OCC1CNCCO1 (stereo not drawn) [VILOXAZINE]
[2]
  AC50: > 10 µM
D(1B) dopamine receptor
  AC50: > 10 µM

## CN(C)CC/C=C1\c2ccccc2CSc2ccccc21 [DOTHIEPIN]
Androgen receptor
  AC50: > 30 µM

## NC1CCN(c2c(F)cc3c(=O)c(C(=O)O)cn(C4CC4)c3c2Cl)C1 (stereo not drawn) [CLINAFLOXACIN]
[3]
  AC50: 40 µM
[4]
  AC50: > 300 µM

## CCCCCNC(=N)N/N=C/c1c[nH]c2ccc(OC)cc12 [TEGASEROD]
[5]
  AC50: > 30 µM
